{"source": "ChEMBL document CHEMBL4715821", "about": "“Discovery of 4-ethoxy-7H-pyrrolo[2,3-d]pyrimidin-2-amines as potent, selective and orally bioavailable LRRK2 inhibitors” (Bioorg Med Chem Lett, 2018)", "key": {"[1]": {"target": "cAMP-dependent protein kinase catalytic subunit beta (Homo sapiens) (UniProt P22694)", "assay": "Inhibition of wild-type human full length PKAC-beta (M1 to F351 residues) expressed in bacterial expression system assessed as residual activity at 1 uM by Kinomescan method relative to control"}, "[2]": {"target": "Mitogen-activated protein kinase kinase kinase kinase 4 (Homo sapiens) (UniProt O95819)", "assay": "Inhibition of wild-type human partial length MAP4K4 (M1 to R310 residues) expressed in bacterial expression system assessed as residual activity at 1 uM by Kinomescan method relative to control"}, "[3]": {"target": "Testis-specific serine/threonine-protein kinase 6 (Homo sapiens) (UniProt Q9BXA6)", "sequence (Q9BXA6 whole entry)": "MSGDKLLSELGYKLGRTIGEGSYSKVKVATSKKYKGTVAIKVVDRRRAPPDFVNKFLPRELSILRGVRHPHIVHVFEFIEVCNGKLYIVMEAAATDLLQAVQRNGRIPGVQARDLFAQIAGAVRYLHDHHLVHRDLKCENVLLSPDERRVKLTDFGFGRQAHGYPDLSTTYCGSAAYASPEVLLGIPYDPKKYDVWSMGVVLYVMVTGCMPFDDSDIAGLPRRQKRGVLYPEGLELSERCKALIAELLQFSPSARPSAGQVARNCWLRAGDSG", "assay": "Inhibition of SSTK (unknown origin) assessed as residual activity at 1 uM by Kinomescan method relative to control"}, "[4]": {"target": "Ephrin type-B receptor 3 (Homo sapiens) (UniProt P54753)", "assay": "Inhibition of wild-type human partial length EPHB3 (Q599 to T928 residues) expressed in bacterial expression system assessed as residual activity at 1 uM by Kinomescan method relative to control"}, "[5]": {"target": "Tau-tubulin kinase 1 (Homo sapiens) (UniProt Q5TCY1)", "assay": "Inhibition of TTBK1 (unknown origin) assessed as residual activity at 1 uM by Kinomescan method relative to control"}, "[6]": {"target": "Aurora kinase C (Homo sapiens) (UniProt Q9UQB9)", "sequence (Q9UQB9 whole entry, the tested form may be a part)": "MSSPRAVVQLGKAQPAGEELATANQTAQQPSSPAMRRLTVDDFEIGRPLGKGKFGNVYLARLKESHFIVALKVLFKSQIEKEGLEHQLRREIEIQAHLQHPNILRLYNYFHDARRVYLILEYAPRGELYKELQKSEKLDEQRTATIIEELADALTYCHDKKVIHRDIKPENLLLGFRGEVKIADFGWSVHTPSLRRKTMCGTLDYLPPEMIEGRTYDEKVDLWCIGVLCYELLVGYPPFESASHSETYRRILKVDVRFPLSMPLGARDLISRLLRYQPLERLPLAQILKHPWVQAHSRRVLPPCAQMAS", "assay": "Inhibition of wild-type human full length AURKC (M1 to S275 residues) expressed in bacterial expression system assessed as residual activity at 1 uM by Kinomescan method relative to control"}, "[7]": {"target": "Tyrosine-protein kinase Blk (Homo sapiens) (UniProt P51451)", "sequence (P51451 2-505 limits assumed)": "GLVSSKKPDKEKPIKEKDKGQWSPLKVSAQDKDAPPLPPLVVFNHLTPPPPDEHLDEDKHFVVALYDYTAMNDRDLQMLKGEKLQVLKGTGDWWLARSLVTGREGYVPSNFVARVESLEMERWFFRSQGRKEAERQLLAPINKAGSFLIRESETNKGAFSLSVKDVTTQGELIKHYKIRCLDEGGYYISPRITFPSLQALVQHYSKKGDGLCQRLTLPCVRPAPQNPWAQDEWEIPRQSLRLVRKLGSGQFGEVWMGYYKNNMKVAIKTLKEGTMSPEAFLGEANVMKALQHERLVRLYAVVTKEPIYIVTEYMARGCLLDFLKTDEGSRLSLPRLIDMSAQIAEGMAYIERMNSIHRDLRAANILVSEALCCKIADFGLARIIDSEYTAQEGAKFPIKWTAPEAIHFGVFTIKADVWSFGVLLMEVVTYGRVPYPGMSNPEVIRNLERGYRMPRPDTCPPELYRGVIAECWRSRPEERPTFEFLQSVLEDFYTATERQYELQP", "assay": "Inhibition of wild-type human partial length BLK (G211 to L503 residues) expressed in bacterial expression system assessed as residual activity at 1 uM by Kinomescan method relative to control"}, "[8]": {"target": "Serine/threonine-protein kinase PAK 2 (Homo sapiens) (UniProt Q13177)", "sequence (Q13177 whole entry, the tested form may be a part)": "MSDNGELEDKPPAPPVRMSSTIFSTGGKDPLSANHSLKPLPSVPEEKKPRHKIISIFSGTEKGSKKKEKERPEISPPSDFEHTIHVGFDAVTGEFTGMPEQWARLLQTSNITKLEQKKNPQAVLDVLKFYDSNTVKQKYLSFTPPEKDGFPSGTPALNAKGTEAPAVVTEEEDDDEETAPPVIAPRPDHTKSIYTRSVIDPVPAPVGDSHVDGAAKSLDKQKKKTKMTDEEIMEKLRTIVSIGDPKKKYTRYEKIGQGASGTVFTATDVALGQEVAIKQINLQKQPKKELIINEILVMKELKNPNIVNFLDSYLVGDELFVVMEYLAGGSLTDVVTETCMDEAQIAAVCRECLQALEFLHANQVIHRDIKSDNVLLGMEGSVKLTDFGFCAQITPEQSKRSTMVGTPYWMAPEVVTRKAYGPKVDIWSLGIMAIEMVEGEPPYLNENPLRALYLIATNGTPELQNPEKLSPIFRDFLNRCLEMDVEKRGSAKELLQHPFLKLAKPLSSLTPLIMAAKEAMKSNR", "assay": "Inhibition of wild-type human partial length PAK2 (P151 to R525 residues) expressed in bacterial expression system assessed as residual activity at 1 uM by Kinomescan method relative to control"}, "[9]": {"target": "Serine/threonine-protein kinase 17A (Homo sapiens) (UniProt Q9UEE5)", "assay": "Inhibition of wild-type human partial length DRAK1 (R32 to E363 residues) expressed in bacterial expression system assessed as residual activity at 1 uM by Kinomescan method"}, "[10]": {"target": "Rho-associated protein kinase 2 (Homo sapiens) (UniProt O75116)", "sequence (O75116 whole entry, looked up, the tested form may be a part)": "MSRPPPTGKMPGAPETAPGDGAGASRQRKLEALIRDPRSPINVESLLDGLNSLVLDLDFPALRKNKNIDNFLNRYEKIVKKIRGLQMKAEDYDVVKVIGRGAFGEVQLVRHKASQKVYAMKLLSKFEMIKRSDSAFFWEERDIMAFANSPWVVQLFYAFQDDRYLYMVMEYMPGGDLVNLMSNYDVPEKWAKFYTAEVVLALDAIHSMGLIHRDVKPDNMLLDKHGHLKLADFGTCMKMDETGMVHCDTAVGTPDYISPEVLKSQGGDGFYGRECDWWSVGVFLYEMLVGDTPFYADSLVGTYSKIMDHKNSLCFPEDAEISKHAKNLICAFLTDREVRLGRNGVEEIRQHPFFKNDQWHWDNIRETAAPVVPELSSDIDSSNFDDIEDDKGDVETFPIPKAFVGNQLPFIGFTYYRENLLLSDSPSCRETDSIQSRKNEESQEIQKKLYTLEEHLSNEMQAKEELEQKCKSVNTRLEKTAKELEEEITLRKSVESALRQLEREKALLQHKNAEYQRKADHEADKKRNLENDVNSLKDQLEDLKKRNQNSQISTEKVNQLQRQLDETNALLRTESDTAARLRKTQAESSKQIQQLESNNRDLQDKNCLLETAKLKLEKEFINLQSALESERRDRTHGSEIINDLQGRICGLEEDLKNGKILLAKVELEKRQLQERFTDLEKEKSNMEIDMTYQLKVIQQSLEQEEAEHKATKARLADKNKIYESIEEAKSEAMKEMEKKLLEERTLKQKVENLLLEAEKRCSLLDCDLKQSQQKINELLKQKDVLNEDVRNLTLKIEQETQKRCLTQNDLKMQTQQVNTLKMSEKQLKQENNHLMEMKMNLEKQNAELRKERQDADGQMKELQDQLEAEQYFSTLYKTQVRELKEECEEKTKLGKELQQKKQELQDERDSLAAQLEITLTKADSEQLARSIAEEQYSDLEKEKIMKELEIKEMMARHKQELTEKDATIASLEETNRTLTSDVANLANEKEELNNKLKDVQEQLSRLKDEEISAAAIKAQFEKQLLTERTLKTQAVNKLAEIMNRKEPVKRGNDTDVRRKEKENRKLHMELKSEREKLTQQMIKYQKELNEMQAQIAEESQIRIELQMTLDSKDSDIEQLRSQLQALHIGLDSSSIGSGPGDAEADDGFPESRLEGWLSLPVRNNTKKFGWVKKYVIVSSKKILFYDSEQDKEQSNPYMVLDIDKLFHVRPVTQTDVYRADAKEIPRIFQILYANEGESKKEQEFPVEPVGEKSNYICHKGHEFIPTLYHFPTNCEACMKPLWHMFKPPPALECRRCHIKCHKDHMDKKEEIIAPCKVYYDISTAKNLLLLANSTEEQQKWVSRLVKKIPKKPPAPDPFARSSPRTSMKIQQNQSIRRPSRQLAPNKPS", "assay": "Inhibition of wild-type human partial length ROCK2 (M1 to T431 residues) expressed in mammalian expression system assessed as residual activity at 1 uM by Kinomescan method relative to control"}, "[11]": {"target": "Serine/threonine-protein kinase pim-2 (Homo sapiens) (UniProt Q9P1W9)", "sequence (Q9P1W9 whole entry, looked up, the tested form may be a part)": "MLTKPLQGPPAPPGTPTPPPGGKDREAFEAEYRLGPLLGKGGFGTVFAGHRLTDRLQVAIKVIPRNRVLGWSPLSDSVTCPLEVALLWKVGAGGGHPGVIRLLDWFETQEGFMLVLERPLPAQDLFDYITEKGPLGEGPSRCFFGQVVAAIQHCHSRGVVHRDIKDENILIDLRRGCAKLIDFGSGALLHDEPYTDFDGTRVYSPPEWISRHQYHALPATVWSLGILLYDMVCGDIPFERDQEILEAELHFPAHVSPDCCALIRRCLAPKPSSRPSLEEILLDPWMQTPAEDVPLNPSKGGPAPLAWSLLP", "assay": "Inhibition of wild-type human partial length PIM2 (M1 to E291 residues) expressed in bacterial expression system assessed as residual activity at 1 uM by Kinomescan method relative to control"}, "[12]": {"target": "Mitogen-activated protein kinase kinase kinase 3 (Homo sapiens) (UniProt Q99759)", "assay": "Inhibition of MEKK3 (unknown origin) assessed as residual activity at 1 uM by Kinomescan method relative to control"}, "[13]": {"target": "Mitogen-activated protein kinase kinase kinase 10 (Homo sapiens) (UniProt Q02779)", "assay": "Inhibition of wild-type human partial length MLK2 (V52 to W380 residues) expressed in bacterial expression system assessed as residual activity at 1 uM by Kinomescan method relative to control"}, "[14]": {"target": "Serine/threonine-protein kinase Nek4 (Homo sapiens) (UniProt P51957)", "assay": "Inhibition of wild-type human full length NEK4 (M1 to F841 residues) expressed in mammalian expression system assessed as residual activity at 1 uM by Kinomescan method relative to control"}, "[15]": {"assay": "In vivo inhibition of LRRK2 in Han-Wistar rat assessed as reduction in Ser935 phosphorylation in kidney at 10 to 100 mg/kg, po by Western blot analysis", "assay_type": "functional", "set-up": "scale not given: the % may be the effect or the level left", "settings": "dose 10-100 mg/kg"}, "[16]": {"target": "Vascular endothelial growth factor receptor 3 (Homo sapiens) (UniProt P35916)", "assay": "Inhibition of wild-type human partial length FLT4 (E821 to E1196 residues) expressed in bacterial expression system assessed as residual activity at 1 uM by Kinomescan method relative to control"}, "[17]": {"target": "Aurora kinase A (Homo sapiens) (UniProt O14965)", "assay": "Inhibition of wild-type human partial length AURKA (E122 to K401 residues) expressed in mammalian expression system assessed as residual activity at 1 uM by Kinomescan method relative to control"}, "[18]": {"target": "Testis-specific serine/threonine-protein kinase 3 (Homo sapiens) (UniProt Q96PN8)", "assay": "Inhibition of wild-type human full length TSSK3 (M1 to T268 residues) expressed in mammalian expression system assessed as residual activity at 1 uM by Kinomescan method relative to control"}, "[19]": {"target": "Glycogen synthase kinase-3 alpha (Homo sapiens) (UniProt P49840)", "sequence (P49840 2-483 limits assumed)": "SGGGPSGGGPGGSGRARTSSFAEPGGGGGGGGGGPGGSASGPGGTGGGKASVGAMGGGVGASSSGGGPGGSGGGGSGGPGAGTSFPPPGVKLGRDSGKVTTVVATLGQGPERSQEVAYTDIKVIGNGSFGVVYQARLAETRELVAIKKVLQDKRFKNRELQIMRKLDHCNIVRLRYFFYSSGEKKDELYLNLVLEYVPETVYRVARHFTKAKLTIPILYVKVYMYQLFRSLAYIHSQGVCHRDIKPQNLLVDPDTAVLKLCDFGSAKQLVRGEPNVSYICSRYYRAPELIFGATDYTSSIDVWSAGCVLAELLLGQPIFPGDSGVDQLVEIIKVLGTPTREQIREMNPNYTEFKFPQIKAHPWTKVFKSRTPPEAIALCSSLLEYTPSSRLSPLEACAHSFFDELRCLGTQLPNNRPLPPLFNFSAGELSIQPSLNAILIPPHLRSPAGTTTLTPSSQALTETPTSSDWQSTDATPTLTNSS", "assay": "Inhibition of wild-type human full length GSK3A (M1 to S483 residues) expressed in bacterial expression system assessed as residual activity at 1 uM by Kinomescan method relative to control"}, "[20]": {"target": "Receptor-type tyrosine-protein kinase FLT3 (Homo sapiens) (UniProt P36888)", "assay": "Inhibition of wild-type human partial length FLT3 (V592 to Y969 residues) expressed in bacterial expression system assessed as residual activity at 1 uM by Kinomescan method relative to control"}, "[21]": {"target": "Myosin light chain kinase (Homo sapiens) (UniProt Q32MK0)", "assay": "Inhibition of MYLK3 (unknown origin) assessed as residual activity at 1 uM by Kinomescan method relative to control"}, "[22]": {"target": "Tyrosine-protein kinase Fes/Fps (Homo sapiens) (UniProt P07332)", "assay": "Inhibition of wild-type human partial length FES (I527 to R822 residues) expressed in bacterial expression system assessed as residual activity at 1 uM by Kinomescan method relative to control"}, "[23]": {"target": "Protein kinase C eta type (Homo sapiens) (UniProt P24723)", "assay": "Inhibition of PKCeta (unknown origin) assessed as residual activity at 1 uM by Kinomescan method relative to control"}, "[24]": {"target": "Protein kinase C iota type (Homo sapiens) (UniProt P41743)", "assay": "Inhibition of PKCiota (unknown origin) assessed as residual activity at 1 uM by Kinomescan method relative to control"}, "[25]": {"assay": "Metabolic stability in human liver microsomes assessed as intrinsic clearance", "assay_type": "ADME, Microsome"}, "[26]": {"target": "Non-receptor tyrosine-protein kinase TYK2 (Homo sapiens) (UniProt P29597)", "sequence (P29597 whole entry)": "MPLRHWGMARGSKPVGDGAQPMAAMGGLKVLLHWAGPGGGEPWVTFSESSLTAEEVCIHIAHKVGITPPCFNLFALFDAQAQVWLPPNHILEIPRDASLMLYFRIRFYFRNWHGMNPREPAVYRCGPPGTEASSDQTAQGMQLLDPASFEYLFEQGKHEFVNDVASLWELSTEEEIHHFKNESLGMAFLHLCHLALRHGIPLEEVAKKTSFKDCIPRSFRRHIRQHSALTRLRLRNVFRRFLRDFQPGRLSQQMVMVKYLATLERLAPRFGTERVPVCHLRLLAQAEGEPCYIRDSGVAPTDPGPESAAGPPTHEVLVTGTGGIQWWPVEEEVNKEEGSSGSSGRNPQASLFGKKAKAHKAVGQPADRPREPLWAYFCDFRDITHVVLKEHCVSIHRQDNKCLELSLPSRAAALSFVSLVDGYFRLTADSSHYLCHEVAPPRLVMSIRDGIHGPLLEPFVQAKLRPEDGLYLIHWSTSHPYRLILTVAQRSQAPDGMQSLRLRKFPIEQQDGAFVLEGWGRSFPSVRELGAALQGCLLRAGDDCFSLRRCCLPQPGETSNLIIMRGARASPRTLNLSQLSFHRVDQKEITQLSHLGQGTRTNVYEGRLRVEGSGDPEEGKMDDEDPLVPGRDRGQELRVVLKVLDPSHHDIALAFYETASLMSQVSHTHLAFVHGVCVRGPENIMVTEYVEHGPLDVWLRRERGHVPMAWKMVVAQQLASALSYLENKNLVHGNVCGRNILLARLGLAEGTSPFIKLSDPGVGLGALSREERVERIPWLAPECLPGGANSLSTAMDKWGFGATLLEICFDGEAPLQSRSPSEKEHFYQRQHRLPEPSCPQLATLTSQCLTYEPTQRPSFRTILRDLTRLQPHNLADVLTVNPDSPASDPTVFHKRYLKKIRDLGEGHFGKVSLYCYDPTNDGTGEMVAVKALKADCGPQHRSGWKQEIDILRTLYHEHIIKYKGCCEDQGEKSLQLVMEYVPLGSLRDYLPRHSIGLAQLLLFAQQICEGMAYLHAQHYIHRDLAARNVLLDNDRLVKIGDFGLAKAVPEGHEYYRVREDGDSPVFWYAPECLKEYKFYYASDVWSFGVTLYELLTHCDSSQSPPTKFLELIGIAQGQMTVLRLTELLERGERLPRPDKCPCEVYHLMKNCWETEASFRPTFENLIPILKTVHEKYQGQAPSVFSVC", "assay": "Inhibition of wild-type human partial length TYK2 expressed in mammalian expression system assessed as residual activity at 1 uM by Kinomescan method relative to control"}, "[27]": {"target": "STE20/SPS1-related proline-alanine-rich protein kinase (Homo sapiens) (UniProt Q9UEW8)", "assay": "Inhibition of wild-type human partial length STK39 (P43 to I357 residues) expressed in mammalian expression system assessed as residual activity at 1 uM by Kinomescan method relative to control"}, "[28]": {"target": "TRAF2 and NCK-interacting protein kinase (Homo sapiens) (UniProt Q9UKE5)", "assay": "Inhibition of wild-type human partial length TNIK (D4 to K311 residues) expressed in bacterial expression system assessed as residual activity at 1 uM by Kinomescan method relative to control"}}}
{"compound": "CCOc1nc(Nc2ccc(C(=O)N3CCOCC3)cc2OC)nc2[nH]ccc12", "values": [{"measurement": "Activity", "setting": "[1]", "result": 93.3, "unit": "%"}, {"measurement": "Activity", "setting": "[2]", "result": 95.6, "unit": "%"}, {"measurement": "Activity", "setting": "[3]", "result": 83.3, "unit": "%"}, {"measurement": "Activity", "setting": "[4]", "result": 94.4, "unit": "%"}, {"measurement": "Activity", "setting": "[5]", "result": 103, "unit": "%"}, {"measurement": "Activity", "setting": "[6]", "result": 97.3, "unit": "%"}, {"measurement": "Activity", "setting": "[7]", "result": 114, "unit": "%"}, {"measurement": "Activity", "setting": "[8]", "result": 95.3, "unit": "%"}, {"measurement": "Activity", "setting": "[9]", "result": 97.9, "unit": "%"}, {"measurement": "Activity", "setting": "[10]", "result": 91.3, "unit": "%"}, {"measurement": "Activity", "setting": "[11]", "result": 94.7, "unit": "%"}, {"measurement": "Activity", "setting": "[12]", "result": 97, "unit": "%"}, {"measurement": "Activity", "setting": "[13]", "result": 100, "unit": "%"}, {"measurement": "Activity", "setting": "[14]", "result": 95, "unit": "%"}, {"measurement": "Activity", "setting": "[15]", "result": 100, "unit": "%"}, {"measurement": "Activity", "setting": "[16]", "result": 106, "unit": "%"}, {"measurement": "Activity", "setting": "[17]", "result": 94.8, "unit": "%"}, {"measurement": "Activity", "setting": "[18]", "result": 116, "unit": "%"}, {"measurement": "Activity", "setting": "[19]", "result": 87.8, "unit": "%"}, {"measurement": "Activity", "setting": "[20]", "result": 92.6, "unit": "%"}, {"measurement": "Activity", "setting": "[21]", "result": 96.9, "unit": "%"}, {"measurement": "Activity", "setting": "[22]", "result": 43.2, "unit": "%"}, {"measurement": "Activity", "setting": "[23]", "result": 99.2, "unit": "%"}, {"measurement": "Activity", "setting": "[24]", "result": 96.5, "unit": "%"}, {"measurement": "CLH", "setting": "[25]", "result": 1.1, "unit": "mL/min/g"}, {"measurement": "Activity", "setting": "[26]", "result": 96.5, "unit": "%"}, {"measurement": "Activity", "setting": "[27]", "result": 97.5, "unit": "%"}, {"measurement": "Activity", "setting": "[28]", "result": 98.4, "unit": "%"}]}
